Series [1] is described as follows: Brain penetration study in normal mice after oral dosing. Type of series: in vivo. To be noted: oral dose of 150 mg/kg, normal mouse brain.
The subject of series [2] is rat. In words: Preliminary toxicological experiments in the rat model. Type of series: in vivo. To be noted: preliminary data.
Series [3] is described as follows: Cytotoxicity assay by Cell Counting Kit-8 (CCK-8). Type of series: cell-based, human. Conditions: human, Huh-7 cells; Huh-7, 24 h. Here is the method: The cytotoxicity assay was performed using the Cell Counting Kit-8 (CCK-8, Sigma). We dissolved 0.0524 g of TML-6 (molecular weight is 523.62 g/mol) in 10 mL DMSO to obtain TML-6 stock at 10 mM for cell line study. […] Briefly, Huh-7 cells were seeded overnight in 96-well plates at 5000 cells/well and then subjected to traditional curcumin or TML-6 treatment for 24 h. At each time point, a CCK-8 solution (0.25 mg/mL) was added to the medium in each well for an additional 4 h incubation, and absorbance was measured at 570 nm using an ELISA reader.
For orientation: Tetrazolium assays rely on reduction of a dye to a coloured formazan, in cell work by metabolically active cells.

The subject of series [4] is Aβ42 production in N2a/APPswe stable cells. Description: Aβ42 ELISA of culture medium. To be noted: 24 h. Type of series: cell-based, mouse. Here is the method:
Extracellular levels of soluble Aβ40 and Aβ42 were determined by LEGEND MAX™ β-Amyloid x-40 and X-42 ELISA Kit (Biolegend, San Diego, CA, USA). Overexpression of the APP Swedish mutation (APPswe) in the N2a neuronblastoma cell line was called the N2a/APPswe cell line. N2a/APPswe stable cells were seeded at 8 × 10^5 cells in 6 cm dishes. After overnight incubation, the cells were treated with curcumin and TML-6 for 24 h. […] The culture supernatant was collected and centrifuged at 1500× g at 4 °C for 5 min to remove cells. The culture supernatants from various treatments were conducted to examine the Aβ levels according to the manufacturer’s instructions. The samples for the detection of soluble Aβ levels were diluted in the supernatant at a 1:10 dilution for this experiment. Levels of soluble Aβ were detected by measuring the OD at 620 nm (Molecular Devices, San Jose, CA, USA). The calculation of Aβ levels was based on the standard curves of Aβ40 and Aβ42, respectively.
A general note: In an ELISA, binding on a coated surface is turned into a signal by an enzyme label.

Series [5] relates to APP (amyloid precursor protein) in Huh-7 cells. In words: Western blotting of APP protein expression. Conditions: 24 h, vs medium control. Format: cell-based, human. The protocol:
(§1) After cells were seeded and treated with curcumin and TML-6 for 24 h, cells were washed with ice-cold PBS (Phosphate Buffered Saline) and lysed with 100 μL of RIPA cell lysis buffer (Pierce Biotechnology, Rockford, IL, USA) supplemented with protease and phosphatase inhibitors (Roche Diagnostics, Mannheim, Germany). Cell lysates were further cleaned by centrifugation at 14,000 rpm at 4 °C for 15 min. Protein concentration was determined using a Bradford assay (Bio-Rad, Hercules, CA, USA). For Western blot analysis, 20 μg of each sample was prepared for SDS-PAGE (SDS Poly-acrylamide-gel-electrophoresis) and denatured at 95 ℃ for 10 min. The samples prepared from total lysates were loaded and separated by SDS-PAGE (8% or 10%), and then transferred to PVDF membranes (pore size 0.45 μm; PerkinElmer, Waltham, MA, USA) by semi-dry transfer cell (Bio-Rad). After blocking with 5% skim milk in PBS-T (0.1% Tween-20), the membranes were hybridized with primary antibodies at 1/1000 dilution at 4 °C overnight. On the next day, membranes were washed with PBS-T followed by incubation with HRP-conjugated anti-mouse or anti-rabbit secondary antibody (DAKO, Santa Clara, CA, USA) at 1/5000 dilution at room temperature for 1 h as appropriate. […]
On the technique in general: In western blotting, separated proteins are transferred to a membrane and probed.

The subject of series [6] is Apo E in Huh-7 cells. In words: Western blotting of ApoE protein expression. Type of series: cell-based, human. To be noted: 2.62 µg/mL, 24 h, vs medium and curcumin control. The protocol:
as §1

Series [7] in a line: Brain penetration study in AD transgenic mice after oral dosing. To be noted: oral dose of 150 mg/kg. Type of series: in vivo, mouse.
The subject of series [8] is phospho-mTOR in Huh-7 cells. In words: Western blotting of phospho-mTOR. Type of series: cell-based, human. Conditions: for phospho-mTOR suppression (Western blot, in words): Huh-7, 24 h. The protocol:
After cells were seeded and treated with curcumin and TML-6 for 24 h, cells were washed with ice-cold PBS (Phosphate Buffered Saline) and lysed with 100 μL of RIPA cell lysis buffer (Pierce Biotechnology, Rockford, IL, USA) supplemented with protease and phosphatase inhibitors (Roche Diagnostics, Mannheim, Germany). Cell lysates were further cleaned by centrifugation at 14,000 rpm at 4 °C for 15 min. Protein concentration was determined using a Bradford assay (Bio-Rad, Hercules, CA, USA). For Western blot analysis, 20 μg of each sample was prepared for SDS-PAGE (SDS Poly-acrylamide-gel-electrophoresis) and denatured at 95 ℃ for 10 min. The samples prepared from total lysates were loaded and separated by SDS-PAGE (8% or 10%), and then transferred to PVDF membranes (pore size 0.45 μm; PerkinElmer, Waltham, MA, USA) by semi-dry transfer cell (Bio-Rad). After blocking with 5% skim milk in PBS-T (0.1% Tween-20), the membranes were hybridized with primary antibodies at 1/1000 dilution at 4 °C overnight. On the next day, membranes were washed with PBS-T followed by incubation with HRP-conjugated anti-mouse or anti-rabbit secondary antibody (DAKO, Santa Clara, CA, USA) at 1/5000 dilution at room temperature for 1 h as appropriate. Finally, the images were captured by Amersham Imager 600 (GE Healthcare Life Sciences, Marlborough, MA, USA) after being developed using the chemiluminescent HRP substrate (Millipore, Bedford, MA, USA). The primary antibodies used in this study were anti-APP, anti-NF-κB (Cell Signaling Technology, Danvers, MA, USA), anti-Apo E, anti-p-mTOR (Abcam, Cambridge, MA, USA).

Series [9] relates to phospho-NF-κB in Huh-7 cells. Description: Western blotting of phosphorylated NF-κB. Type of series: cell-based, human. To be noted: 24 h, vs medium control. Here is the method: as §1
Series [10] has as its system Nrf2 promoter in Huh-7 cells. Description: Nrf2 promoter Dual-Luciferase reporter assay. Type of series: cell-based, human. Here is the method: To examine the activities of the anti-oxidative gene NrF2, Huh-7 cells were seeded in 24-well culture plates and then co-transfected with serial dilution of pG5-Nrf2-Luc (firefly luciferase) with the pRL-TK Renilla luciferase reporter. Following overnight incubation, the transfected cells were treated with traditional curcumin and TML-6 compounds for additional 24 h. The luciferase reporter assay was performed using the Dual-Luciferase Reporter assay system (Promega, Madison, WI, USA). The cell lysates were assayed for both firefly and Renilla luciferase activities. The relative luciferase units (RLU) were measured using a luminometer (GLOMAX Multi, Promega). Firefly luciferase activity was normalized for transfection efficiency using the Renilla luciferase activity in each lysate as the control. The RLUs are expressed as means plus standard deviation of three independent experiments.

For series [11], the system named is human neuroglioma H4-APP751 stable cell line. Details: method as in PMID 20622013. Conditions: 15 and 20 μM, no cytotoxicity; cited from earlier work.
Series [12] relates to rat neuroblastoma B104-APP751 stable cell line. More on the design: method as in PMID 20622013. To be noted: 15 and 20 μM, no cytotoxicity; cited from earlier work.

“And” between values parts separate entries of the source, which are not always exact repeats. Equal entries are not always repeated. Bounds are passed on as bounds.

With `CCN(CC)C(=O)CC(C)(C(=O)/C=C/c1ccc(OC)c(OC)c1)C(=O)/C=C/c1ccc(OC)c(OC)c1` [TML-6], the detection in brain result in series [1] is recorded as “could not be detected”. Besides, the “toxicity in the rat model (in words)” value in series [2] is listed as “no obvious toxicity”. In series [3], the IC50 at 24 h was 4.19 µg/mL and 8 µM. The “Aβ42 level, reduced to % as compared with control group” value in series [4] (3.14 µg/mL, culture medium) is given as about 80%. For the same compound, in series [5] (1.96 µg/mL), the “reduction of APP protein expression level” value was determined as 60%. In addition, the “induction of ApoE protein expression level” value in series [6] is reported as “approximately 44%”. Moreover, in [7] (brain relative to plasma, AD transgenic mouse, read-out: brain level as % of the plasma pK levels), the Kp is 0.1. In series [7] (AD transgenic mouse brain, preliminary), the “level detected in brain” value amounted to 3 ng/mL. Also, the “phospho-mTOR suppression (Western blot, in words)” value in series [8] is “suppressed in all the concentrations”. In series [8] (TML-6 5.24 µg/mL gives same level as curcumin 20 µg/mL), the “potency of phospho-mTOR reduction relative to curcumin” value is recorded as “about 4 fold”. Further, in series [8] (dose below IC50 (0.65~3.93 µg/mL), 24 h), the “average reduction of phospho-mTOR” value is on record as “about 30%”. For the same compound, the “decrease of phosphorylated NF-κB level” value in [9] (1.96 µg/mL) is “about 50%”. Further, the “concentration of highest Nrf2 transcriptional activation” value in [10] (Huh-7, 24 h, luciferase reporter) is listed as 1.32 µg/mL. The “concentration beyond which cytotoxicity was found in Nrf2 promoter-transfected cells” value in series [10] (Huh-7 transiently transfected with Nrf2 promoter) was over 5240 ng/mL. In addition, the “Nrf2 promoter activity, fold stronger than traditional curcumin at 10 µg/mL” value in series [10] (TML-6 at 1.32 µg/mL vs curcumin 10 µg/mL, Huh-7, 24 h) worked out at 12.1 fold. Besides, the “Nrf2 promoter activity, fold stronger than traditional curcumin at 20 µg/mL” value in [10] (TML-6 at 1.32 µg/mL vs curcumin 20 µg/mL, Huh-7, 24 h) came to 6.6 fold.

Take curcumin [reference compound]: the “Aβ40 and Aβ42 levels (in words)” value in [11] and in series [12] was “significantly decreased” each time. For the same compound, the “Aβ42 level vs control (in words)” value in series [4] (different doses up to 20 µg/mL) is “increased to levels higher than those of the control”. Besides, the “reduction of APP protein expression level” value in [5] (5 µg/mL) is 30%. Moreover, the “phospho-mTOR suppression (Western blot, in words)” value in series [8] is listed as “suppressed in a dose-dependent manner”. For the same compound, the “decrease of phosphorylated NF-κB level” value in [9] (10 µg/mL) worked out at 35%.

One may read the IC50 as the concentration that gives 50% inhibition. A higher IC50 goes with a need for much substance.

The record behind these values is paper PMC7432838, “A Curcumin Analog Exhibits Multiple Biologic Effects on the Pathogenesis of Alzheimer’s Disease and Improves Behavior, Inflammation, and β-Amyloid Accumulation in a Mouse Model” (International Journal of Molecular Sciences, 2020).
